Legend:
LCN2 = LCN2 ELISA after recombinant cytokine stimulation; assay type: cell-based; conditions: recombinant cytokine added to artificial CSF; PC9, MDA231 or LLC LeptoM cells; ELISA at 48 h
Description: FIG. 11A-11E. Proinflammatory cytokines in human CSF. (A) LCN2 was quantified by ELISA in the CSF from patients harboring LM was treated with neutralizing antibody against IL-6 or IL-8 and added to MDA231-LeptoM cells for 12 hours. N=3 in each of two independent experiments. NS=not significant, * indicates p<0.05, ** indicates p<0.01, *** indicates p<0.001 (unpaired t test). Data represent mean±SEM. (B) Evaluation of LCN2 expression by ELISA with the treatment of pro-inflammatory cytokines IL-6, IL-8, IL-1β and TNF in PC9-Par and PC9-LeptoM cells. LCN2 expression was determined by ELISA of conditioned media collected 48 hours after recombinant cytokine stimulation. N=3 in each of two independent experiments. *indicates p<0.05 (unpaired t test). Data represent mean±SEM. (C) LCN2 expression by ELISA 48 h after treatment of MDA-Par and MDA-LeptoM cells with IL-6, IL-8, IL-1β and TNF. LCN2 expression by ELISA in conditioned media for 48 hours after recombinant cytokines stimulation. N=3 in each of two independent experiments. *indicates p<0.05 (unpaired t test). Data represent mean±SEM. (D) LCN2 expression by ELISA 48 h after treatment of LLC-Par and LLC-LeptoM cells with IL-6, IL-1β and TNF. N=3 in each of two independent experiments. * indicates p<0.05 (unpaired t test). Data represent mean±SEM. (E) Visualization of macrophage cells in first two diffusion components. First diffusion component is best matched by Hypoxia as indicated with GSEA es=0.6, fdr=0 and M1 phenotype es=−0.5, fdr=0.11, while second diffusion component is best matched by M2 phenotype es=0.7, fdr=0. MAGIC imputed gene set expression was standardized to zero mean and unit of standard deviation.
Secreted protein detection. Human LCN2 (Abcam, ab215541), Hepcidin (R&D, DHP250), Transferrin (Abcam, ab187391), Ferritin (LSBio, LS-F428-1), IL-6 (R&D, D6050), IL-8 (R&D, D8000C), IL-1β (R&D, DLB50), TNF expression (Abcam, ab181421) in CSF patient samples or cell culture supernatants were measured using ELISA kits according to manufacturer's instructions. […]

PC9-LeptoM cells = test: Cell associated iron and viability of PC9-LeptoM cells after knockdown of SLC22A17 or LCN2; assay type: cell-based, human; conditions: 100 μg/mL diferric Tf added in vitro
From the text: (§1) FIG. 14A-14K. Leptomeningeal metastasis requires iron transporters. (A) Total iron measured by mass spectroscopy in CSF cancer patients with and without LM. Presence of LM is indicated +/−. N=11 cancer patients without LM and n=12 cancer patients with LM. * indicates p<0.05 (unpaired t test). Data represent mean±SEM. (B) LCN2 iron binding assay in patient CSF. Non-LCN2-bound iron [NLBI] and LCN2-bound iron [LBI] was detected in the CSF from cancer patients with or without LM. N=10. **** indicates p<0.0001 (unpaired t test). Data represent mean±SEM. (C) Expression of genes associated with iron transport in parental cells and LeptoM cells by bulk RNA sequencing. N=2 in PC9 cells and n=3 in LeptoM cells. Presented as log 2 fold change in each group with cutoff <20 normalized counts. (D) Tumor growth in mice injected with PC9-LeptoM cells expressing shCtl or shLCN2. Treatment with either vehicle or 5 mg/Ml holo-transferrin (diferric [Tf]) was commenced on day 1 and continued every third day for a total of 7 doses. Left: Histogram represents in vivo BLI imaging post-inoculation at day 21. […] Iron measured by colorimetric assay. […] Intracellular iron was determined by colorimetric assay. […]
Cell Viability Assay. […] The CellTiter-Glo Luminescent Cell Viability Assay (Promega G9241) was used to quantify viable cells in culture according to the manufacturer's protocols. […]

[1] = system: LeptoM cells expressing shLCN2; test: Tumor growth in mice injected with LeptoM cells expressing shLCN2, treated with holo-transferrin; assay type: in vivo, mouse; conditions: 5 mg/mL holo-transferrin intracisternal every third day, 7 doses
From the text: as §1, with “21. N=6-8 per group in each of two independent experiments. Right: Representative BLI images. Sh1+Veh vs sh1+Tf, p=0.2087. sh2+Veh vs sh2+Tf, p=0.0604. Data represent mean±SEM.” for “21.”

Substance	expression of LCN2 (LCN2)	cell growth after SLC22A17 or LCN2 knockdown (PC9-LeptoM cells)	intracellular iron accumulation after SLC22A17 or LCN2 knockdown (PC9-LeptoM cells)	rescue of LCN2 knockdown by shRNA in vivo (tumor growth, survival) [1]
IL-1β: recombinant IL-1β (R&D) added to culture media	induced expression of LCN2			
IL-6: recombinant IL-6 (R&D) added to culture media	induced expression of LCN2			
IL-8: recombinant IL-8 (R&D) added to culture media	induced expression of LCN2			
transferrin: iron-loaded (diferric) holo-transferrin, Invitria 777TRF029		rescued	rescued	partially rescued

— patent publication US20240050385A1, “METHODS OF TREATING LEPTOMENINGEAL METASTASIS” (MEMORIAL SLOAN-KETTERING CANCER CENTER, priority 2020, published 2024)
